Measurements published in ChEMBL document CHEMBL5505979, “Novel aminothiazoximone-corbelled ethoxycarbonylpyrimidones with antibiofilm activity to conquer Gram-negative bacteria through potential multitargeting effects” (Eur J Med Chem, 2024).
In brackets after ≈: the same amount, converted by molar mass. Activity calls are given as the source filed them. The calls are words filed in the database; no cut-off is given here.

What was measured:
Enterococcus faecalis = assay: Anti-bacterial activity against Enterococcus faecalis V583 assessed as inhibition of bacterial growth; assay type: functional
Staphylococcus aureus = assay: Anti-bacterial activity against Staphylococcus aureus ATCC 12600 assessed as inhibition of bacterial growth; assay type: functional; settings: Staphylococcus aureus, ATCC 12600; read-out: MIC
Pseudomonas aeruginosa [1] = assay: Anti-bacterial activity against Pseudomonas aeruginosa ATCC 27853 assessed as inhibition of bacterial growth; assay type: functional; settings: Pseudomonas aeruginosa, ATCC 27853; read-out: MIC
Pseudomonas aeruginosa [2] = assay: Anti-bacterial activity against Pseudomonas aeruginosa CMCC (B) 10104 assessed as inhibition of bacterial growth; assay type: functional; settings: Pseudomonas aeruginosa, CMCC (B) 10104; read-out: MIC
Acinetobacter baumannii [3] = assay: Anti-bacterial activity against Acinetobacter baumannii assessed as inhibition of bacterial growth measured upto 9 hrs; assay type: functional, organism-based
Escherichia coli [4] = assay: Antibiofilm activity against Escherichia coli ATCC 25922 assessed as inhibition rate of bio-film formation at 0.5 times of MIC concentration by Crystal violet assay relative to control; assay type: functional
Escherichia coli [5] = assay: Antibiofilm activity against Escherichia coli ATCC 25922 assessed as inhibition rate of bio-film formation at 8 times of MIC concentration by Crystal violet assay relative to control; assay type: functional
Escherichia coli [6] = assay: Antibiofilm activity against Escherichia coli ATCC 25922 assessed as inhibition rate of bio-film formation at 8 times of MIC concentration in presence of sodium dodecyl sulfate by Crystal violet assay relative to control; assay type: functional, organism-based
Escherichia coli [7] = assay: Antibiofilm activity against Escherichia coli ATCC 25922 assessed as clearance rate of mature biofilm at 8 times of MIC concentration relative to control; assay type: functional
Acinetobacter baumannii [8] = assay: Antibiofilm activity against Acinetobacter baumannii assessed as reduction of self-aggregation; assay type: functional, organism-based
Acinetobacter baumannii [9] = assay: Reduction of biofilm virulent factors in Acinetobacter baumannii assessed as decrease in hydrophobicity index; assay type: functional, organism-based
Acinetobacter baumannii [10] = assay: Reduction of biofilm virulent factors in Acinetobacter baumannii assessed as decrease in extracellular polymeric substances (EPS) by measuring optical density at 490 nm at 1/2 times of MIC concentration by congo red binding assay (reference value: 0.188 to 0.192); assay type: functional
Escherichia coli [11] = assay: Reduction of biofilm virulent factors in Escherichia coli ATCC 25922 assessed as decrease in extracellular polymeric substances (EPS) by measuring optical density at 490 nm at 4 times of MIC concentration by congo red binding assay (reference value: 0.028 to 0.031); assay type: functional
Acinetobacter baumannii [12] = assay: Anti-bacterial activity against Acinetobacter baumannii assessed as fractional inhibitory concentration index measured upto 9 hrs in presence of norfloxacin; assay type: functional
Acinetobacter baumannii [13] = assay: Anti-bacterial activity against Acinetobacter baumannii assessed as growth inhibition by measuring optical density measured at 4 time of MIC in presence of 1/4 times of MIC of norfloxacin by Checkerboard assay (reference value: 0.152); assay type: functional
Acinetobacter baumannii [14] = assay: Anti-bacterial activity against Acinetobacter baumannii assessed as growth inhibition by measuring optical density measured at 2 time of MIC in presence of 1/8 times of MIC of norfloxacin by Checkerboard assay (reference value: 0.155); assay type: functional
Acinetobacter baumannii [15] = assay: Anti-bacterial activity against Acinetobacter baumannii assessed as growth inhibition by measuring optical density measured at 2 time of MIC in presence of 1 times of MIC of norfloxacin by Checkerboard assay (reference value: 0.155); assay type: functional
Acinetobacter baumannii [16] = assay: Anti-bacterial activity against Acinetobacter baumannii assessed as growth inhibition by measuring optical density measured at 2 time of MIC in presence of 2 times of MIC of norfloxacin by Checkerboard assay (reference value: 0.155); assay type: functional
Acinetobacter baumannii [17] = assay: Anti-bacterial activity against Acinetobacter baumannii assessed as growth inhibition by measuring optical density measured at 1 time of MIC in presence of 1/8 times of MIC of norfloxacin by Checkerboard assay (reference value: 0.157); assay type: functional
Acinetobacter baumannii [18] = assay: Anti-bacterial activity against Acinetobacter baumannii assessed as growth inhibition by measuring optical density measured at 1/2 time of MIC in presence of 1 times of MIC of norfloxacin by Checkerboard assay (reference value: 0.152); assay type: functional
Acinetobacter baumannii [19] = assay: Anti-bacterial activity against Acinetobacter baumannii assessed as growth inhibition by measuring optical density measured at 1/4 time of MIC in presence of 1 times of MIC of norfloxacin by Checkerboard assay (reference value: 0.152); assay type: functional
Escherichia coli [20] = assay: Anti-bacterial activity against Escherichia coli ATCC 25922 assessed as growth inhibition by measuring optical density measured at 4 time of MIC in presence of 1/2 times of MIC of norfloxacin by Checkerboard assay (reference value: 0.125); assay type: functional
Escherichia coli [21] = assay: Anti-bacterial activity against Escherichia coli ATCC 25922 assessed as growth inhibition by measuring optical density measured at 2 time of MIC in presence of 1/4 times of MIC of norfloxacin by Checkerboard assay (reference value: 0.128); assay type: functional
Escherichia coli [22] = assay: Anti-bacterial activity against Escherichia coli ATCC 25922 assessed as growth inhibition by measuring optical density measured at 1 time of MIC in presence of 1/8 times of MIC of norfloxacin by Checkerboard assay (reference value: 0.125); assay type: functional
Escherichia coli [23] = assay: Anti-bacterial activity against Escherichia coli ATCC 25922 assessed as growth inhibition by measuring optical density measured at 1 time of MIC in presence of 1/4 times of MIC of norfloxacin by Checkerboard assay (reference value: 0.125); assay type: functional
Escherichia coli [24] = assay: Anti-bacterial activity against Escherichia coli ATCC 25922 assessed as growth inhibition by measuring optical density measured at 1/4 time of MIC in presence of 1/4 times of MIC of norfloxacin by Checkerboard assay (reference value: 0.128); assay type: functional
Escherichia coli [25] = assay: Anti-bacterial activity against Escherichia coli ATCC 25922 assessed as growth inhibition by measuring optical density measured at 1/4 time of MIC in presence of 1/2 times of MIC of norfloxacin by Checkerboard assay (reference value: 0.128); assay type: functional
Acinetobacter baumannii [26] = assay: Induction of membrane depolarization Acinetobacter baumannii assessed as increase in red fluorescence intensity at 0.5 to 8 times of MIC concentration measured after 6 hrs by […] assay; assay type: functional, organism-based
Escherichia coli [27] = assay: Induction of membrane depolarization Escherichia coli ATCC 25922 assessed as increase in red fluorescence intensity at 0.5 to 8 times of MIC concentration measured after 6 hrs by […] assay; assay type: functional, organism-based
Acinetobacter baumannii [28] = assay: Anti-bacterial activity against Acinetobacter baumannii assessed as bacterial mortality at 1 to 4 MIC concentration by propidium iodide based fluorescence microscopy relative to control; assay type: functional, organism-based
Acinetobacter baumannii [29] = assay: Reduction in metabolic activity of Acinetobacter baumannii assessed as decrease in bacterial lactate dehydrogenase activity at 0.5 to 8 times of MIC concentration; assay type: functional, organism-based
Escherichia coli [30] = assay: Induction of intracellular ROS accumulation in Escherichia coli ATCC 25922 assessed as fluorescence intensity at 1/4 to 2 times of MIC by DCFH-DA staining based assay; assay type: functional, organism-based
Acinetobacter baumannii [31] = assay: Induction of ROS accumulation in Acinetobacter baumannii assessed as decrease in GSH activity by measuring reduced GSH to convert to oxidized GSSG at 1/4 to 2 times of MIC by Ellmans method; assay type: functional, organism-based

SMILES: CCCCc1nc(Cl)c(C2NC(=O)NC(CN3CCN(C(=O)/C(=N/OC)c4csc(N)n4)CC3)=C2C(=O)OCC)[nH]1 (stereo not drawn)
- MIC (Enterococcus faecalis): 13 µM (≈ 7.91 µg/mL)
- MIC (Staphylococcus aureus): 7 µM (≈ 4.26 µg/mL)
- MIC (Pseudomonas aeruginosa [1]): 26 µM (≈ 15.8 µg/mL)
- MIC (Pseudomonas aeruginosa [2]): 26 µM (≈ 15.8 µg/mL)
- Activity (Acinetobacter baumannii [3]): Dose-Dependent Effect
- inhibition (INH) (Escherichia coli [4]): 28.3%
- inhibition (INH) (Escherichia coli [5]): >70.2%
- Activity (Escherichia coli [6]): Active
- Activity (Escherichia coli [7]): 37.9%
- Activity (Acinetobacter baumannii [8]): Dose-Dependent Effect
- Activity (Acinetobacter baumannii [9]): Dose-Dependent Effect
- OD (Acinetobacter baumannii [10]): 0.173
- OD (Escherichia coli [11]): 0.061
- fractional inhibitory concentration index (FICI) (Acinetobacter baumannii [12]): 0.75
- OD (Acinetobacter baumannii [13]): 0.051
- OD (Acinetobacter baumannii [14]): 0.128
- OD (Acinetobacter baumannii [15]): 0.052
- OD (Acinetobacter baumannii [16]): 0.051
- OD (Acinetobacter baumannii [17]): 0.116
- OD (Acinetobacter baumannii [18]): 0.109
- OD (Acinetobacter baumannii [19]): 0.112
- OD (Escherichia coli [20]): 0.052
- OD (Escherichia coli [21]): 0.102
- OD (Escherichia coli [22]): 0.121
- OD (Escherichia coli [23]): 0.111
- OD (Escherichia coli [24]): 0.127
- OD (Escherichia coli [25]): 0.125
- Activity (Acinetobacter baumannii [26]): Active
- Activity (Escherichia coli [27]): Active
- Activity (Acinetobacter baumannii [28]): Active
- Activity (Acinetobacter baumannii [29]): Active
- Activity (Escherichia coli [30]): Active
- Activity (Acinetobacter baumannii [31]): Active
